Laboratory results as given in patent US7705040B2, “Reagents for highly specific detection of peroxynitrite” (The University of Hong Kong, priority 2005, dated 2010).

Assays:
[1] = Specificity of probe with different reactive oxygen species: fluorescence change with superoxide; details: ss-6 20 μM, phosphate buffer pH 7.4; Xanthine Oxidase then Xanthine (50 μL, 20 mM)
Experimental: (§1) Compound ss-6 obtained in Example 1 was dissolved in CH3CN to a concentration of 2 mM, and then the solution was added a 100 mM sodium phosphate buffer (pH 7.4) for dissolution to a final concentration of 20 μM. The excitation spectrum and the fluorescence spectrum of the 20 μM ss-6 solution were measured using a Perkin Elmer LS50 fluorescence spectrometer. Slit width was 5 nm for both the excitation spectrum and the fluorescence spectrum, and the photomultiplier voltage was 775 V. The measurement was carried out at the excitation wavelength of 515 nm.
(§2) Compound ss-6 obtained in Example 1 was dissolved in CH3CN to a concentration of 2 mM, and then the solution was added with a 100 mM sodium phosphate buffer (pH 7.4) for dissolution at a final concentration of 20 μM. […] The changes in fluorescence intensity before and after the treatment were measured. The fluorescence intensity was measured under the same conditions as those in Example 2. Each concentration of the fluorescence probe was 20 μM (a 100 mM sodium phosphate buffer, pH 7.4).
(§3) Compound ss-12 obtained in Example 5 was dissolved in CH3CN to a concentration of 2 mM, and then the solution was added with a 100 mM sodium phosphate buffer (pH 7.4) for dissolution at a final concentration of 20 μM. […] The changes in fluorescence intensity before and after the treatment were measured. […]

[2] = Specificity of probe with different reactive oxygen species: fluorescence change with singlet oxygen; details: ss-6 20 μM, phosphate buffer pH 7.4; 3-(1,4-dihydro-1,4-epidioxy-1-napthyl)propionic acid at 37° C. (50 μL, 20 mM)
Experimental: as §1, §2, §3

[3] = system: primary cultured cortex neurons; experiment: Cell assay: fluorescent microscopy of intracellular ONOO− production after SIN-1; assay type: cell-based, Sprague-Dawley rats; details: probe 20 μM for 15 mins, then 10 and 100 μM SIN-1 for 15 mins; fluorescent microscopy (FIG. 24)
Experimental: Throughout this study, primary cultured cortex neurons were prepared from embryonic day 15 Sprague-Dawley rats. Briefly, dissociated cell suspensions were plated at a density of 2×10^6 cells/well on poly-L-lysine-coated 6-well plates (BD Biosciences, San Diego, Calif., USA) with Neurobasal/2% B27 (Gibco-BRL, Grand Island, N.Y.) containing glutamine (0.5 mM, Sigma Chemical Company, St. Louis, Mo.), penicillin (100 U/mL) and streptomycin (100 μg/mL). The cells were maintained in a humidified incubator at 37° C., in 5% CO2-95% air. On the tenth day, cultured cortical cells were used for experimentation. The primary cultured neuronal cells were incubated with the ss-6 and ss-12 at the concentration of 20 μM for 15 mins and then washed with sodium phosphate buffer (100 mM, pH 7.4) for 3 times. After that, the cells were treated with 10 and 100 μM SIN-1 (3-Morpholino-sydnonimine-HCl) for 15 mins. After washed with sodium phosphate buffer (100 mM, pH 7.4), the cells were observed under fluorescent microscopy.

[4] = Specificity of probe with different reactive oxygen species: fluorescence change with H2O2; details: ss-6 20 μM, phosphate buffer pH 7.4; 10 equiv
Experimental: as §1, §2, §3

[5] = Specificity of probe with different reactive oxygen species: fluorescence change with hydroxyl radical; details: ss-6 20 μM, phosphate buffer pH 7.4; Fe(ClO4)2 (25 μL, 40 mM) and H2O2 (25 μL, 80 mM)
Experimental: as §1
(§4) Compound ss-6 obtained in Example 1 was dissolved in CH3CN to a concentration of 2 mM, and then the solution was added with a 100 mM sodium phosphate buffer (pH 7.4) for dissolution at a final concentration of 20 μM. 50 μL of different reactive oxygen species (10 equiv) were added independently to 5 mL of the corresponding ss-6 solution. The changes in fluorescence intensity before and after the treatment were measured. The fluorescence intensity was measured under the same conditions as those in Example 2. Each concentration of the fluorescence probe was 20 μM (a 100 mM sodium phosphate buffer, pH 7.4).

[6] = Specificity of probe with different reactive oxygen species: fluorescence change with SIN-1; details: ss-6 20 μM, 100 mM sodium phosphate buffer pH 7.4; 10 equiv; SIN-1 generates ONOO− slowly in buffer
Experimental: as §1, §4

[7] = Fluorescence spectrum after reaction of probe with 15 equiv ONOO−; details: ss-6 20 μM, 30 min, room temperature, excitation 515 nm, FIG. 9 vs FIG. 8
Experimental: as §1, with “nm. […]” for “nm.”
Subsequently, 15 equiv of ONOO^− solution with different concentration was slowly added to a 20 μM ss-6 solution with vigorous stirring at room temperature. […] The changes in fluorescence intensity were measured after 30 min. The excitation spectrum and the fluorescence spectrum of the solution after the completion of the reaction were measured using the same conditions as described above.
Compound ss-12 obtained in Example 5 was dissolved in CH3CN to a concentration of 2 mM, and then the solution was added a 100 mM sodium phosphate buffer (pH 7.4) for dissolution at a final concentration of 20 μM. The excitation spectrum and the fluorescence spectrum of the 20 μM ss-12 solution were measured using a Perkin Elmer® LS50 fluorescence spectrometer. […]

[8] = Specificity of probe with different reactive oxygen species: fluorescence change with ONOO−
Experimental: as §1, with “nm. […]” for “nm.”
as §2, §3

[9] = Specific detection of peroxynitrite: fluorescence versus ONOO− concentration; details: probe 20 μM, pH 7.4, after 30 mins
Experimental: (§5) Compound ss-6 obtained in Example 1 was dissolved in CH3CN to a concentration of 2 mM, and then the solution was added with a 100 mM sodium phosphate buffer (pH 7.4) for dissolution at a final concentration of 20 μM. Then peroxynitrite was added to final concentrations of 0, 20, 60, 100, 200, 240 and 300 μM, and the fluorescence spectrum was measured after 30 mins. The fluorescence spectrum was measured under the same conditions as those in Example 2.
as §5, with “Compound ss-12” for “Compound ss-6”, “Example 5” for “Example 1”, “Example 6.” for “Example 2.”

## N,N-diethyl-8-[2-methoxy-(4,4,4-trifluoro-3-oxobutyl)phenyl]-4,4-difluoro-4-bora-3a,4a-diaza-s-indacene-3,5-dicarboxamide [ss-6]
[1]
  changes in fluorescence intensity before and after the treatment, O2•−: −1%
[2]
  changes in fluorescence intensity before and after the treatment, 1O2: 3%
[3]
  measurement of intracellular ONOO− production: satisfactory results
[4]
  changes in fluorescence intensity before and after the treatment, H2O2: −5%
[5]
  changes in fluorescence intensity before and after the treatment, •OH: 2%
[6]
  changes in fluorescence intensity before and after the treatment, SIN-1: 166%
[7]
  change in fluorescence intensity after reaction with ONOO−: Dramatic increase
[8]; probe 20 μM, phosphate buffer pH 7.4, conclusion from Tables 1 and 2
  selectivity for peroxynitrite over other reactive oxygen species: very high selectivity
[8]; ss-6 20 μM, 100 mM sodium phosphate buffer pH 7.4, 10 equiv ROS, excitation 515 nm
  changes in fluorescence intensity before and after the treatment, ONOO^−: 750%
[9]; peroxynitrite 0, 20, 60, 100, 200, 240 and 300 μM
  increase in fluorescence intensity with peroxynitrite: great increase
[9]; peroxynitrite 0-300 μM
  relationship of fluorescence intensity with the concentration of ONOO−: good linear relationship
